Biological target: Leucine-rich repeat serine/threonine-protein kinase 2 (Homo sapiens, UniProt Q5S007)
Experiment: LRRK2 Enzymatic Assay: LRRKtide substrate (peptide sequence RLGRDKYKTLRQIRQ, derived from human ezrin [amino acids 561-573], moesin [amino acids 539-553] and radixin [amino acids 558-570], obtained from SignalChem, catalogue #L10-58, reconstituted in 20 mM Tris-HCl at pH 7.5 to a final concentration of 1 mg/mL, assay concentration 20 μM) and recombinant human LRRK2 (catalytic domain only [amino acids 970-2527], GST-tagged, expressed in insect cells, obtained from ThermoFisher Scientific, catalogue #PV4874, 0.35 mg/mL, assay concentration 30 nM) were mixed in assay buffer (20 mM Hepes pH 7.5, 10 mM MgCl, 1 mM EGTA, 0.02% Brij35, 0.02 mg/ml BSA, 0.1 mM NaVO, 2 mM DTT, 1% DMSO). Compounds of interest (in DMSO, serial 3-fold dilution from 10 μM to 0.5 nM) or control (1% DMSO) were dispensed into the kinase reaction mixture by Acoustic technology (Echo550; nanoliter range). After incubation at room temperature for 20 minutes, the kinase reaction was initiated by addition of [P]-ATP (Specific activity 10 μCi/μl) and the mixture was incubated at room temperature for 2 hours. The reaction was then stopped by spotting the reaction mixture on strips of phosphocellulose P81 paper. Following washing, the radioactivity of the P81 paper was measured and kinase activity data were expressed as the percent remaining kinase activity in test samples compared to vehicle (dimethyl sulfoxide) reactions.

Sequence of Leucine-rich repeat serine/threonine-protein kinase 2 (Q5S007 whole entry, the tested form may be a part): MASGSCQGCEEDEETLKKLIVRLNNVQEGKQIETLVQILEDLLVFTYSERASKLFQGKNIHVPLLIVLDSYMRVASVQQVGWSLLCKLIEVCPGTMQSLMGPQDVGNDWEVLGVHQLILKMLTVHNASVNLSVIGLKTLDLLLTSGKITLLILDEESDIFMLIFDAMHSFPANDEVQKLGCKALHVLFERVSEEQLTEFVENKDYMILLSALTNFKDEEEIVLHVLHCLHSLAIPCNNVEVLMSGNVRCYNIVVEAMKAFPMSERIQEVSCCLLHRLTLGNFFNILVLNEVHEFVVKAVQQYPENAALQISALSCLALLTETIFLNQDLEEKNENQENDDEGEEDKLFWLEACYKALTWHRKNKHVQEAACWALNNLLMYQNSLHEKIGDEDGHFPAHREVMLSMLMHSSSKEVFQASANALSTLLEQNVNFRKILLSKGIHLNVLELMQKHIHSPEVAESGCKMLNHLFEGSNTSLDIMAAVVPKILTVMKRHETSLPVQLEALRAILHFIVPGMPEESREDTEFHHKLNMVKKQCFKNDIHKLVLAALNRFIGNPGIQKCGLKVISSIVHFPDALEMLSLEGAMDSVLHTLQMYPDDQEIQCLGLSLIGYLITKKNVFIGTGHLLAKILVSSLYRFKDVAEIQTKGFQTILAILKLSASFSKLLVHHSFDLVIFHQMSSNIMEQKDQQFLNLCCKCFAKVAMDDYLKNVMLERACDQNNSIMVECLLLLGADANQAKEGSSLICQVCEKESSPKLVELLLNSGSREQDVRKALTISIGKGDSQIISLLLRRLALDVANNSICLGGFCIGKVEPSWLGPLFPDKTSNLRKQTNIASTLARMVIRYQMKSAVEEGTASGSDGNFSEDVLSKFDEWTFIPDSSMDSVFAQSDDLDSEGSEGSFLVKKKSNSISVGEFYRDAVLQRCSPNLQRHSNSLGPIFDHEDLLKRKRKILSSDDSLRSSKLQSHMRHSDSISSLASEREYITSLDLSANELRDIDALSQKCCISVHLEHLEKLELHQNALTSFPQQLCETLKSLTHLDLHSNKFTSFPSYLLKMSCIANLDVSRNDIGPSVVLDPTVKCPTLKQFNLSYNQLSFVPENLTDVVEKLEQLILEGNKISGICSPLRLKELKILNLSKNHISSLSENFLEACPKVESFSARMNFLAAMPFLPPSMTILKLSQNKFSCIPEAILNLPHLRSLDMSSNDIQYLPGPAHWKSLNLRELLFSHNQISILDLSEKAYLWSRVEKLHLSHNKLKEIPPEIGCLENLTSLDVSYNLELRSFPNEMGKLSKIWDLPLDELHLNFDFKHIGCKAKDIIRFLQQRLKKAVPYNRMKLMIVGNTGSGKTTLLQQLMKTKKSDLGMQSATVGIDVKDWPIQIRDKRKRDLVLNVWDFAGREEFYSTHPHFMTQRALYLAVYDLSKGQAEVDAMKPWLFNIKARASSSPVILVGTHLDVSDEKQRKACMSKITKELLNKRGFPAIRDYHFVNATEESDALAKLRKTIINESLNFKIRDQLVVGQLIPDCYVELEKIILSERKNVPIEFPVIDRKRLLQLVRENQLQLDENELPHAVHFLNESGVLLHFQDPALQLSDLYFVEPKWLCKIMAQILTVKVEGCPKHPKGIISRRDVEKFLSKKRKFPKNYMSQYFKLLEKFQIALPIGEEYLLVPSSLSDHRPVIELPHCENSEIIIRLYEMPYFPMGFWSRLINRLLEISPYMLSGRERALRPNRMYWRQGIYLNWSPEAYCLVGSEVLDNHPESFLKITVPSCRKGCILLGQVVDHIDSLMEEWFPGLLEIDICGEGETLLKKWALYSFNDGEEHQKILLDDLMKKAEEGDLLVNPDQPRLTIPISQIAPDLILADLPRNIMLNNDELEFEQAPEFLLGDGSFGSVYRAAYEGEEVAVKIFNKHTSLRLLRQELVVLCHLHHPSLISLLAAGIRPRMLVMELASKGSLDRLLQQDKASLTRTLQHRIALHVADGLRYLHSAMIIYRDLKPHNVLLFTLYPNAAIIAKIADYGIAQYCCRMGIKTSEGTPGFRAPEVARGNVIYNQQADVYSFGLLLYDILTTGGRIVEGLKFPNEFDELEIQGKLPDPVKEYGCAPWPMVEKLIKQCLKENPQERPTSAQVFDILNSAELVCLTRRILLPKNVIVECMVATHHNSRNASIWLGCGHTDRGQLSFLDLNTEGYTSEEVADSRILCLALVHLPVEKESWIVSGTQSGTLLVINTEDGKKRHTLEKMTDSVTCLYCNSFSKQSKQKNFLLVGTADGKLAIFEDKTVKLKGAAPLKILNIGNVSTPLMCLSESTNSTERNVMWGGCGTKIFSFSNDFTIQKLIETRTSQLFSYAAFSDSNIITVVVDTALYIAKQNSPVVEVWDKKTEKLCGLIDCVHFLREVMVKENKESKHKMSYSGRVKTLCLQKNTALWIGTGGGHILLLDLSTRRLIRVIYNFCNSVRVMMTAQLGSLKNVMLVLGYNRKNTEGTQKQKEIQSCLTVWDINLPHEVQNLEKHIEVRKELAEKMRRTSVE

SMILES | IC50 [nM]
CC(N[C@H]1CC[C@H](COc2ccnc(Nc3ccc(N4CCOCC4)cc3)n2)CC1)C(F)(F)F (stereo partly drawn) | > 400
CN[C@H]1CC[C@H](COc2nc(Nc3cnn(C(C)C)c3)ncc2Cl)CC1 | < 50
CC(=O)N[C@H]1CC[C@H](COc2nc(Nc3cnn(CCO)c3)ncc2F)CC1 | < 50
Cc1nn(C(C)(C)C#N)cc1Nc1ncc(F)c(OCC2CCNCC2(F)F)n1 (stereo not drawn) | < 50
CN[C@H]1CC[C@H](COc2nc(Nc3cn(C(C)(C)C#N)nc3C)ncc2C2CC2)CC1 | < 50
FC(F)CN[C@H]1CC[C@H](COc2nc(Nc3ccc(N4CCOCC4)cc3)ncc2Cl)CC1 | < 50
CC(=O)N[C@H]1CC[C@H](COc2nc(Nc3ccc(N4C[C@@H](C)O[C@@H](C)C4)cc3)ncc2C)CC1 | < 50
CC(=O)N[C@H]1CC[C@@H](COc2nc(Nc3ccc(N4C[C@@H](C)O[C@@H](C)C4)cc3)ncc2F)C1 | < 50
